Measurements reported in PMC11157491, “Novel Alaninamide Derivatives with Drug-like Potential for Development as Antiseizure and Antinociceptive Therapies—In Vitro and In Vivo Characterization” (ACS Chemical Neuroscience, 2024).

Columns and labels:
[1] = Metabolic stability in human liver microsomes; assay type: in vitro ADME; conditions: human, human liver microsomes; HLMs, 120 min; read-out: metabolic stability (% remaining after the reaction with HLMs)
Excerpt: Molecular mass Molecular mass of the
Substrate (m/z) metabolite (m/z) Metabolic pathway
* Reference unstable drug; metabolic stability determined using the same procedure published previously

mice [2] = test: Capsaicin-induced pain; assay type: in vivo; conditions: Mus musculus, ip, 30 min before capsaicin
Description: The experimental groups consisted of 10 adult male Albino Swiss mice (CD-1, 18–25 g). Each animal was tested only once. Immediately after the assay, the animals were sacrificed by cervical dislocation. Behavioral measurements were observed by trained observers. The in vivo antinociceptive assays were in accordance with Polish regulations and the European Union Directive of 22 Sept 2010 (2010/63/EU). All procedures were carried out according to the rules of the International Council on Laboratory Animal Science (ICLAS) and were approved by the Local Ethics Committee in Cracow, Poland (104/2015, 279/2019, and 614/2022). The tested substances were suspended in a 1% aqueous solution of Tween 80 and were injected i.p. 30 min prior to the test. […] The in vivo procedure for the model of capsaicin-induced nociception was previously reported;[67] the animals were pretreated with vehicle (10 mL/kg, negative control), and the dose–response of investigated compounds was evaluated at 12.5, 25, and 50 mg/kg.
Data are presented as means ± standard error of the mean (SEM). […] Statistically significant differences between groups were calculated using one-way analysis of variance (ANOVA) and the post hoc Dunnett’s multiple comparison test or two-way analysis of variance (ANOVA). […]

mice [3] = test: PTZ-induced kindling; assay type: in vivo; conditions: for percentage of fully kindled mice: PTZ 40 mg/kg; for mean seizure severity score: 40 mg/kg
Description: The percentage of fully kindled mice in the control group was 77%. […] These slight differences were not statistically significant as compared to the PTZ control group.
Data are shown as means of seizure severity ± SEM (n = 13–15 animals). The statistical significance was evaluated by a mixed-effect model for repeated measures followed by Tukey’s post hoc test: *p < 0.05, **p < 0.01, ***p < 0.001, and ****p < 0.0001 as compared to the control group (GraphPad Prism 8).
(§1) The procedure was performed as described in detail in our earlier studies.[15],[65] […] The seizure severity was scored using the modified Racine’s scale. […] 24 h after the last PTZ injection, animals were subjected to the locomotor activity test, the elevated plus maze test, and the forced swim test according to the methods described in detail elsewhere. After behavioral tests, animals were sacrificed and the brains were rapidly removed. Hippocampi and cortices were dissected, frozen, and stored at −80 °C until the assay of determination of GABA and glutamate concentration.
The mean seizure severity scores were calculated for all experimental groups after each PTZ injection and analyzed using a mixed-effect model for repeated measures with Tukey’s post hoc test. Fisher’s exact probability test was used to compare the percentage of fully kindled mice.

mice [4] = test: Oxaliplatin (OXPT)-induced peripheral neuropathy, von Frey test; assay type: in vivo
Description: The method is based on measuring the mean force that caused the paw withdrawal reaction, i.e., pain threshold. […] In the group treated with 28 at a dose of 25 mg/kg (Figure 6C), the initial value of 5.84 ± 0.43 (baseline) was decreased to the value of 2.78 ± 0.34 (47.6% of the baseline) and 3.39 ± 0.36 (58.0% of the baseline) in the early and late phases, respectively. […] In the group treated with the test compound at a dose of 75 mg/kg, the initial value of 6.17 ± 0.56 decreased to the values of 2.93 ± 0.45 (47.5% of the baseline) and 3.61 ± 0.28 (58.5% of the baseline) in the early and late phases, respectively.
The experimental groups consisted of 10 adult male Albino Swiss mice (CD-1, 18–25 g). Each animal was tested only once. Immediately after the assay, the animals were sacrificed by cervical dislocation. Behavioral measurements were observed by trained observers. The in vivo antinociceptive assays were in accordance with Polish regulations and the European Union Directive of 22 Sept 2010 (2010/63/EU). All procedures were carried out according to the rules of the International Council on Laboratory Animal Science (ICLAS) and were approved by the Local Ethics Committee in Cracow, Poland (104/2015, 279/2019, and 614/2022). The tested substances were suspended in a 1% aqueous solution of Tween 80 and were injected i.p. 30 min prior to the test. Control group animals (negative control) were administered with an appropriate amount of vehicle (Tween 80, 1% aqueous solution, i.p.) 30 min prior to the test. […] Before formalin application, different groups of animals were injected i.p. with vehicle (10 mL/kg, negative control). The in vivo procedure for the model of capsaicin-induced nociception was previously reported;[67] the animals were pretreated with vehicle (10 mL/kg, negative control), and the dose–response of investigated compounds was evaluated at 12.5, 25, and 50 mg/kg.
Data are presented as means ± standard error of the mean (SEM). GraphPad Prism Software (v.5) was used to analyze the vast majority of data. Statistically significant differences between groups were calculated using one-way analysis of variance (ANOVA) and the post hoc Dunnett’s multiple comparison test or two-way analysis of variance (ANOVA). The criterion for significance was set at p < 0.05. The log-probit method was applied to statistically determine the ED50 values with 95% confidence limits.

hERG potassium channel = target: T1, hERG potassium channel (Homo sapiens, UniProt Q12809); test: hERG potassium channel binding; conditions: HEK-293 cells expressing human recombinant hERG, human recombinant HEK-293 cell, read-out: % inhibition of control specific binding
T1 construct: Eurofins (contract assay)
T1 sequence (Q12809 whole entry): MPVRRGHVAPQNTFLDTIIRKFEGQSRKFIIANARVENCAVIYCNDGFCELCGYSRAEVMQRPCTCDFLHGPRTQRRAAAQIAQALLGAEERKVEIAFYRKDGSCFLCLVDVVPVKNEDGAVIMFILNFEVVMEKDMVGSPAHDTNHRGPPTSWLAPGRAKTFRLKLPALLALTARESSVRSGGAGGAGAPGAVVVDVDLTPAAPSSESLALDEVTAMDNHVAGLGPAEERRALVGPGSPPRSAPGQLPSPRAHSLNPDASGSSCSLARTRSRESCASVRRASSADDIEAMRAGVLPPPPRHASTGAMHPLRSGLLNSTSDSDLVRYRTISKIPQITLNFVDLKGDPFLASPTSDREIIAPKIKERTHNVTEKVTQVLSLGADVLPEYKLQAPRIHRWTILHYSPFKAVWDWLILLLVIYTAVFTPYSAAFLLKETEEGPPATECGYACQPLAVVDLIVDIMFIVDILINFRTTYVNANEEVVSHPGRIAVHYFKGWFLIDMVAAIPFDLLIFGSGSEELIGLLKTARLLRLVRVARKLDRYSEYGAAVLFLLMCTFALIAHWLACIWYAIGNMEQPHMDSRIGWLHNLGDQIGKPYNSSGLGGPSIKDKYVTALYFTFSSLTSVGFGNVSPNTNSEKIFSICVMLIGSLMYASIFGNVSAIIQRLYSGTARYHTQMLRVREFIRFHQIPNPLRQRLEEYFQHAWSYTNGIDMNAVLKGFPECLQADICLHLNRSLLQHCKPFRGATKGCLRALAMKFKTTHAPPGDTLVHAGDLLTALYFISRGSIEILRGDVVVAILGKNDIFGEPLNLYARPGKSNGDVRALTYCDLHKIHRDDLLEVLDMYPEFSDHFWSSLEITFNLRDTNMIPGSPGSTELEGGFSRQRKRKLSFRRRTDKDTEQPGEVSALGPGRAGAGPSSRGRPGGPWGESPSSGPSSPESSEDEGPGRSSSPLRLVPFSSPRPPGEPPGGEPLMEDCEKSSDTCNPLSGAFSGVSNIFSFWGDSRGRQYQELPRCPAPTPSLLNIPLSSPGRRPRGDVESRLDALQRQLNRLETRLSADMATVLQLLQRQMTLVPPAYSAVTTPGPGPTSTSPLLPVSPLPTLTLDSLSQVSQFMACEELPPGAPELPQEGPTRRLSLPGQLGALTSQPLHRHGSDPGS
Excerpt: Moreover, we also evaluated its influence on the potassium channel (hERG), which is known to be one of the most critical “off-targets” responsible for the harmful proarrhythmic activity of drugs and drug candidates.[56] […] The latter result is particularly important, since it minimizes the risk of potential proarrhythmic activity of 28. Despite this positive result, more detailed off-target profiling is undoubtedly necessary in the next steps of preclinical development.
(§2) Binding/functional studies were carried out commercially in Eurofins Laboratories (Poitiers, France) and Eurofins Panlabs Discovery Services Taiwan, Ltd. (New Taipei City, Taiwan) using testing procedures that were reported previously (for details, see Table S2).
(§3) Table S2. Radioligand binding and functional assays. […]
(§4) Potassium channel (hERG) […]
(§5) Assays were performed commercially in Eurofins Laboratories ( Poitiers, France) or Eurofins Panlabs Discovery Services
(§6) Taiwan, Ltd. (New Taipei City, Taiwan).

GABAA ion channel = GABAA ion channel [3H]GABA binding (agonist radioligand); conditions: 100 μM, rat hippocampus
Description: as §2, §3
GABAA ion channel [3H]GABA (agonist radioligand)
as §4, §5, §6

PTZ-kindled mice = test: Behavioral tests in PTZ-kindled mice (locomotor activity, elevated plus maze, forced swim test); assay type: in vivo
Description: As compared to the nonkindled control group, there were no changes in locomotor activity, as well as anxiety- and depressive-like behavior in the PTZ-kindled control group.
as §1
Figure S1. Acute effects of compound 26 (A) and 28 (B) on grip strength in mice. Both compounds were administered i.p. at a dose of 50 mg/kg, 30 min before the test. Control animals received vehicle. Data are presented as means ± SEM of grip strength expressed in mN/g of body weight (n = 10animals). The statistical significance was evaluated by a Student's t test (GraphPad Prism 8). […]
entries in the elevated plus maze test; (B) the percentage of the time spent in the open arms in the elevated plus maze test; (C) spontaneous locomotor activity; (D) total immobility duration in the forced swim test in mice subjected to the PTZ kindling procedure. PTZ (40 mg/kg, i.p.) was given three times a week, 30 min after […]
Behavioral tests were performed 24 h after the last PTZ injection. Data are shown as means ± SEM (n = 10–15 animals). The statistical significance was evaluated by one-way ANOVA followed by the Tukey’s post hoc test: *p < 0.05, (GraphPad Prism 8). […]

Row | Compound | remaining at 2 h [1] [%] | ED50 (mice [2]) [mg/kg] | percentage of fully kindled mice (mice [3]; 10 mg/kg i.p. every 24 h) [%] | percentage of fully kindled mice (mice [3]; 20 mg/kg i.p. every 24 h) [%] | percentage of fully kindled mice (mice [3]; 40 mg/kg i.p. every 24 h) [%] | mean seizure severity score (mice [3]; after the first PTZ injection) | mean seizure severity score (mice [3]; after the last PTZ injection) | pain threshold after compound, % of the baseline (mice [4]; 25 mg/kg, early phase (3 h after OXPT)) [%] | pain threshold after compound, % of the baseline (mice [4]; 50 mg/kg, early phase (3 h after OXPT)) [%] | pain threshold after compound, % of the baseline (mice [4]; 50 mg/kg, late phase (7 days after OXPT)) [%] | pain threshold after compound, % of the baseline (mice [4]; 75 mg/kg, early phase (3 h after OXPT)) [%] | pain threshold after compound, % of the baseline (mice [4]; 75 mg/kg, late phase (7 days after OXPT)) [%] | inhibition at 100 µM (hERG potassium channel) [%] | % inhibition of control specific binding (GABAA ion channel) [%] | decrease of total immobility duration in the forced swim test (PTZ-kindled mice; 10 and 20 mg/kg, vs PTZ-kindled control) [%] | locomotor activity and anxiety-related behavior (PTZ-kindled mice; repeated administration)
1 | CC(=O)NC(C)C(=O)N1CCN(c2cccc(C(F)(F)F)c2)CC1 (stereo not shown) [Compound 26, N-(1-oxo-1-(4-(3-(Trifluoromethyl)phenyl)piperazin-1-yl)propan-2-yl)acetamide] | 93.5 |  |  |  |  |  |  |  |  |  |  |  |  |  |  | 
2 | CC(=O)NC(C)C(=O)N1CCN(c2cccc(OC(F)(F)F)c2)CC1 (stereo not shown) [Compound 28, N-(1-oxo-1-(4-(3-(Trifluoromethoxy)phenyl)piperazin-1-yl)propan-2-yl)acetamide] |  | 27.5 | 71 | 73 | 47 | 1.00 ± 0.00 | 3.40 ± 0.45 | 99.5 | 85.4 | 104.8 | 121.5 | 91.3 | 12.9 | 10.0 | ~10 | did not affect
